The NIST ThermoML archive (doi:10.1016/j.fluid.2010.10.028)

Assay: xn = mol fraction of the nth substance listed
Conditions: Liquid, Vibrating tube method

CC(C)=O [acetone] + CCCCCCC
Conditions	mass density [kg/m3]
377.4 K, 104790 kPa, x1 = 0.492	730.51
377.4 K, 104810 kPa, x1 = 0.801	762.89
377.4 K, 109780 kPa, x1 = 0.492	733.39
377.4 K, 109790 kPa, x1 = 0.801	765.94
377.4 K, 109820 kPa, x1 = 0.7024	753.96
377.4 K, 109850 kPa, x1 = 0.611	743.53
377.4 K, 114760 kPa, x1 = 0.801	768.91
377.4 K, 114820 kPa, x1 = 0.7024	756.89
377.4 K, 114850 kPa, x1 = 0.611	746.4
377.4 K, 119800 kPa, x1 = 0.7024	759.71
377.4 K, 119830 kPa, x1 = 0.492	738.96
377.4 K, 119830 kPa, x1 = 0.801	771.84
377.4 K, 124810 kPa, x1 = 0.7024	762.48
377.4 K, 124850 kPa, x1 = 0.492	741.61
377.4 K, 124850 kPa, x1 = 0.801	774.66
377.4 K, 129810 kPa, x1 = 0.7024	765.17
377.4 K, 129840 kPa, x1 = 0.611	754.52
377.4 K, 129840 kPa, x1 = 0.801	777.42
377.4 K, 129850 kPa, x1 = 0.492	744.18
377.41 K, 1430 kPa, x1 = 0.4	667.78
377.41 K, 1430 kPa, x1 = 0.8992	667.78
377.41 K, 5010 kPa, x1 = 0.4	675.34
377.41 K, 5010 kPa, x1 = 0.8992	675.34
377.41 K, 10000 kPa, x1 = 0.4	684.66
377.41 K, 10000 kPa, x1 = 0.8992	684.66
377.41 K, 14980 kPa, x1 = 0.4	692.99
377.41 K, 14980 kPa, x1 = 0.8992	692.99
377.41 K, 19960 kPa, x1 = 0.4	700.52
377.41 K, 19960 kPa, x1 = 0.8992	700.52
377.41 K, 24950 kPa, x1 = 0.4	707.43
377.41 K, 24950 kPa, x1 = 0.8992	707.43
377.41 K, 29840 kPa, x1 = 0.801	699.24
377.41 K, 29860 kPa, x1 = 0.492	670
377.41 K, 29930 kPa, x1 = 0.4	713.82
377.41 K, 29930 kPa, x1 = 0.8992	713.82
377.41 K, 34850 kPa, x1 = 0.801	705.2
377.41 K, 34930 kPa, x1 = 0.4	719.78
377.41 K, 34930 kPa, x1 = 0.8992	719.78
377.41 K, 39850 kPa, x1 = 0.801	710.77
377.41 K, 39910 kPa, x1 = 0.4	725.35
377.41 K, 39910 kPa, x1 = 0.8992	725.35
377.41 K, 44860 kPa, x1 = 0.801	716
377.41 K, 44890 kPa, x1 = 0.4	730.6
377.41 K, 44890 kPa, x1 = 0.8992	730.6
377.41 K, 49850 kPa, x1 = 0.801	720.93
377.41 K, 49880 kPa, x1 = 0.4	735.58
377.41 K, 49880 kPa, x1 = 0.8992	735.58
377.41 K, 54850 kPa, x1 = 0.492	695.17
377.41 K, 54860 kPa, x1 = 0.4	740.29
377.41 K, 54860 kPa, x1 = 0.8992	740.29
377.41 K, 59860 kPa, x1 = 0.4	744.79
377.41 K, 59860 kPa, x1 = 0.8992	744.79
377.41 K, 64820 kPa, x1 = 0.492	703.44
377.41 K, 64830 kPa, x1 = 0.4	749.06
377.41 K, 64830 kPa, x1 = 0.8992	749.06
377.41 K, 69810 kPa, x1 = 0.4	753.19
377.41 K, 69810 kPa, x1 = 0.8992	753.19
377.41 K, 74900 kPa, x1 = 0.492	711.06
377.41 K, 79760 kPa, x1 = 0.4	760.91
377.41 K, 79760 kPa, x1 = 0.8992	760.91
377.41 K, 84740 kPa, x1 = 0.4	764.58
377.41 K, 84740 kPa, x1 = 0.8992	764.58
377.41 K, 89720 kPa, x1 = 0.4	768.12
377.41 K, 89720 kPa, x1 = 0.8992	768.12
377.41 K, 94700 kPa, x1 = 0.4	771.53
377.41 K, 94700 kPa, x1 = 0.8992	771.53
377.41 K, 99670 kPa, x1 = 0.4	774.85
377.41 K, 99670 kPa, x1 = 0.8992	774.85
377.41 K, 104650 kPa, x1 = 0.4	778.05
377.41 K, 104650 kPa, x1 = 0.8992	778.05
377.41 K, 109630 kPa, x1 = 0.4	781.18
377.41 K, 109630 kPa, x1 = 0.8992	781.18
377.41 K, 114600 kPa, x1 = 0.4	784.19
377.41 K, 114600 kPa, x1 = 0.8992	784.19
377.41 K, 114850 kPa, x1 = 0.492	736.23
377.41 K, 119570 kPa, x1 = 0.4	787.15
377.41 K, 119570 kPa, x1 = 0.8992	787.15
377.41 K, 124540 kPa, x1 = 0.4	790.02
377.41 K, 124540 kPa, x1 = 0.8992	790.02
377.41 K, 129820 kPa, x1 = 0.4	793
377.41 K, 129820 kPa, x1 = 0.8992	793
387.3 K, 19850 kPa, x1 = 0.611	656.37
387.31 K, 1350 kPa, x1 = 0.611	620.65
387.31 K, 4850 kPa, x1 = 0.611	628.99
387.31 K, 9850 kPa, x1 = 0.611	639.33
387.31 K, 14880 kPa, x1 = 0.611	648.36
387.31 K, 39860 kPa, x1 = 0.611	682.12
387.31 K, 49860 kPa, x1 = 0.611	692.49
387.31 K, 54850 kPa, x1 = 0.611	697.23
387.31 K, 64910 kPa, x1 = 0.611	706.07
387.31 K, 84880 kPa, x1 = 0.611	721.4
387.31 K, 109790 kPa, x1 = 0.611	737.58
387.31 K, 114860 kPa, x1 = 0.611	740.58
387.31 K, 119850 kPa, x1 = 0.611	743.43
387.31 K, 124850 kPa, x1 = 0.611	746.21
387.31 K, 129830 kPa, x1 = 0.611	748.89
387.32 K, 1320 kPa, x1 = 0.801	639.55
387.32 K, 1540 kPa, x1 = 0.4	654.4
387.32 K, 1540 kPa, x1 = 0.8992	654.4
387.32 K, 9840 kPa, x1 = 0.801	658.47
387.32 K, 14970 kPa, x1 = 0.4	681.93
387.32 K, 14970 kPa, x1 = 0.8992	681.93
387.32 K, 24870 kPa, x1 = 0.611	663.63
387.32 K, 29860 kPa, x1 = 0.611	670.27
387.32 K, 34870 kPa, x1 = 0.611	676.42
387.32 K, 39850 kPa, x1 = 0.801	702.19
387.32 K, 39920 kPa, x1 = 0.4	716.49
387.32 K, 39920 kPa, x1 = 0.8992	716.49
387.32 K, 44860 kPa, x1 = 0.611	687.46
387.32 K, 49850 kPa, x1 = 0.801	712.89
387.32 K, 49880 kPa, x1 = 0.4	727.19
387.32 K, 49880 kPa, x1 = 0.8992	727.19
387.32 K, 54850 kPa, x1 = 0.801	717.78
387.32 K, 59840 kPa, x1 = 0.611	701.71
387.32 K, 59850 kPa, x1 = 0.4	736.82
387.32 K, 59850 kPa, x1 = 0.801	722.41
387.32 K, 59850 kPa, x1 = 0.8992	736.82
387.32 K, 64820 kPa, x1 = 0.801	726.8
387.32 K, 64830 kPa, x1 = 0.4	741.3
387.32 K, 64830 kPa, x1 = 0.8992	741.3
387.32 K, 69930 kPa, x1 = 0.611	710.16
387.32 K, 74800 kPa, x1 = 0.4	749.67
387.32 K, 74800 kPa, x1 = 0.8992	749.67
387.32 K, 74910 kPa, x1 = 0.611	714.05
387.32 K, 74910 kPa, x1 = 0.801	735.15
387.32 K, 79790 kPa, x1 = 0.4	753.62
387.32 K, 79790 kPa, x1 = 0.8992	753.62
387.32 K, 79900 kPa, x1 = 0.611	717.8
387.32 K, 84760 kPa, x1 = 0.4	757.4
387.32 K, 84760 kPa, x1 = 0.8992	757.4
387.32 K, 89750 kPa, x1 = 0.4	761.05
387.32 K, 89750 kPa, x1 = 0.8992	761.05
387.32 K, 89870 kPa, x1 = 0.611	724.87
387.32 K, 94730 kPa, x1 = 0.4	764.59
387.32 K, 94730 kPa, x1 = 0.8992	764.59
387.32 K, 94840 kPa, x1 = 0.801	749.8
387.32 K, 94850 kPa, x1 = 0.611	728.19
387.32 K, 99700 kPa, x1 = 0.4	768.01
387.32 K, 99700 kPa, x1 = 0.8992	768.01
387.32 K, 99840 kPa, x1 = 0.611	731.42
387.32 K, 104670 kPa, x1 = 0.4	771.32
387.32 K, 104670 kPa, x1 = 0.8992	771.32
387.32 K, 104810 kPa, x1 = 0.611	734.54
387.32 K, 104810 kPa, x1 = 0.801	756.41
387.32 K, 109640 kPa, x1 = 0.4	774.53
387.32 K, 109640 kPa, x1 = 0.8992	774.53
387.32 K, 109780 kPa, x1 = 0.801	759.56
387.32 K, 114600 kPa, x1 = 0.4	777.64
387.32 K, 114600 kPa, x1 = 0.8992	777.64
387.32 K, 119580 kPa, x1 = 0.4	780.68
387.32 K, 119580 kPa, x1 = 0.8992	780.68
387.32 K, 119830 kPa, x1 = 0.801	765.63
387.32 K, 124530 kPa, x1 = 0.4	783.61
387.32 K, 124530 kPa, x1 = 0.8992	783.61
387.32 K, 129840 kPa, x1 = 0.4	786.68
387.32 K, 129840 kPa, x1 = 0.8992	786.68
387.33 K, 1300 kPa, x1 = 0.7024	628.97
387.33 K, 4820 kPa, x1 = 0.7024	637.48
387.33 K, 4860 kPa, x1 = 0.492	621.33
387.33 K, 4860 kPa, x1 = 0.801	648.03
387.33 K, 5010 kPa, x1 = 0.4	662.6
387.33 K, 5010 kPa, x1 = 0.8992	662.6
387.33 K, 9820 kPa, x1 = 0.7024	647.9
387.33 K, 9850 kPa, x1 = 0.492	631.47
387.33 K, 10000 kPa, x1 = 0.4	672.89
387.33 K, 10000 kPa, x1 = 0.8992	672.89
387.33 K, 14850 kPa, x1 = 0.492	640.29
387.33 K, 14860 kPa, x1 = 0.801	667.65
387.33 K, 19810 kPa, x1 = 0.7024	665.07
387.33 K, 19860 kPa, x1 = 0.801	675.81
387.33 K, 19960 kPa, x1 = 0.4	690.05
387.33 K, 19960 kPa, x1 = 0.8992	690.05
387.33 K, 24860 kPa, x1 = 0.801	683.23
387.33 K, 24940 kPa, x1 = 0.4	697.46
387.33 K, 24940 kPa, x1 = 0.8992	697.46
387.33 K, 29820 kPa, x1 = 0.7024	679.2
387.33 K, 29830 kPa, x1 = 0.801	690
387.33 K, 29940 kPa, x1 = 0.4	704.27
387.33 K, 29940 kPa, x1 = 0.8992	704.27
387.33 K, 34860 kPa, x1 = 0.801	696.35
387.33 K, 34930 kPa, x1 = 0.4	710.58
387.33 K, 34930 kPa, x1 = 0.8992	710.58
